From patent publication US12559749B2, “Methods of rescuing stop codons via genetic reassignment with ACE-tRNA” (UNIVERSITY OF IOWA RESEARCH FOUNDATION, priority 2017, dated 2026)

What was measured:
[1] = system: native stop codons (TAA, TAG, TGA), 3′UTR ribosome density; test: Ribosome footprint profiling of transcriptome-wide 3′UTRs, HEK293 cells; assay type: cell-based, human
Text: The question was raised whether ACE-tRNAs that show efficacious suppression of premature stop codons may also induce global readthrough of native stop codons. To address this potential “off target” suppression, a transcriptome-wide quantitative profile of actively engaged ribosomes on all cellular transcripts was obtained by generating libraries of ribosome footprints from HEK293 cells expressing exogenous ACE-tRNAs or a control mock plasmid (puc57GG). Streptomycin was removed from the growth media to prevent readthrough artifacts. For comparison, the ribosome footprint library was also generated from cells in the presence or absence of G418 (150 μM, 48 h). […] Only transcripts with a minimum threshold of 5 RPKM in the coding sequence and 0.5 RPKM in the 3′UTR in two replicate libraries were included for the quantitation comparison (254 transcripts in G418 and 495-748 transcripts in ACE-tRNAs). […] ACE-tRNAs examined here had no detectable change of 3′UTR ribosome density with the exception of ACE-tRNA Gln-UAA and Arg-UGA which induced approximately a 2-fold increase in 3′UTR ribosome density for the cognate stop codon complimentary to the ACE-tRNA anticodon. Understanding the biological significance of 2-fold readthrough of protein stops will require further study, but this effect is substantially lower compared to the 100- to 1000-fold suppression of PTC for the same ACE-tRNA.
Multiple in-frame stop codons are frequently found at the end of genes 37-39 and may cause a minor difference in overall 3′UTR ribosome density for ACE-tRNA and G418 treatment. Ribosome occupancy was examined at each nucleotide in the 3′UTR within a 60 nt region downstream of the stop codons. […] Reads were normalized per total million-mapped reads, compared against control cells, and reported as a log 2-fold change as in panel A. More than 5,200 transcripts were mapped to at least 1 footprint in the region of interest. […] Taken together, the ribosome profiling data argue that efficiency of native stop codon suppression by ACE-tRNAs is generally low, and markedly less than the level of PTC suppression.
Ribosome Footprint Profiling Library preparation. HEK293 cells transiently transfected with ACE-tRNAs and control plasmid (puc57GG) were grown in standard grown media in the absence of Pen-Strep for 48 h. Libraries were prepared as described^55, with a few modifications. Briefly, cells were rapidly cooled by addition of ice-cold PBS, lysed in lysis buffer (20 mM Tris-HCl/pH7.4, 150 mM NaCl, 5 mM MgCl2, 1 mM DTT, 1% (v/v) Triton X-100, and 25 U ml^−1 Turbo DNase I) for 10 min on ice, and triturated with ten times through a 26-G needle. […]

[2] = Phase 3 clinical trials; cited from earlier work
NLuc-UGA PTC reporter = test: NanoLuc nonsense reporter screen of ACE-tRNA, UGA (TGA) PTC, HEK293 cells; assay type: cell-based, human; conditions: t-stem variants, luciferase 24 hours post-transfection, HEK cells
Text: Several different nonsense mutations cause CF, thus underlying roughly 10% of all CF disease. FIG. 7. These cases are concentrated into […] specific genetic lesions: E60X, R75X, G542X, R553X, Q890X, Y1092X, R1158X, R1162X and W1282X. We propose that it should be feasible, with the right approach, to screen existing human tRNA sequences for modification and tolerance to anti-codon editing. To this end, roughly 144 ACE-tRNAs were candidates to test for those that could be used to promote the repair of the disease causative nonsense codon and the expression of the full-length protein. Specifically, using the scheme described in FIG. 11, tRNA libraries were generated to identify novel tRNA sequences that encode for ACE tRNA with the ability to repair the top CF causative nonsense mutations. Specifically, 10 ng of annealed oligos encoding the ACE-tRNAs were combined with 50 ng of NanoLuc reporter plasmid, 1 ul 10× CutSmart Buffer (NEB), 1 ul T4 ligase (NEB), 10 mM ATP and 1 ul BbsI (NEB) and cycled in a thermocycler as described in FIG. 11. 1 ul of the reaction was transformed into competent E. coli and the transformants were plated on ampicillin agar plates. […]
Screening studies were first performed to identify the best ACE-tRNA Candidates from tryptophan and glycine. […] Plates were read on a SpectraMax i3 (Molecular Devices). […]

CN[C@@H]1[C@@H](O)[C@@H](O[C@@H]2[C@@H](O)[C@H](O[C@H]3O[C@H]([C@@H](C)O)[C@@H](O)[C@H](O)[C@H]3N)[C@@H](N)C[C@H]2N)OC[C@]1(C)O [G418, reference compound]
effect on transcriptome-wide 3′UTR ribosome density ([1]; G418 150 μM, 48 h, ACE-tRNAs transiently transfected): no observable effect on transcriptome-wide 3′UTR ribosome density
ribosome occupancy in the early region of 3′UTR downstream of stop codons ([1]; per nucleotide, -35 to +65 nt): no observable change of ribosome occupancy

O=C(O)c1cccc(-c2noc(-c3ccccc3F)n2)c1 [Ataluren]
efficacy in patient populations [2]: unexpectedly low efficacy

B1: TS-38 52-62 G-C: t-stem variant of Trpchr17.trna39, SEQ ID NO: 3 (nucleic acid)
chain: GGCCUCGUGGCGCAACGGUAGCGCGUCUGACUUCAGAUCAGAAGGUUCCGGGUUCAAAUCCCGGCGGGGUCA
modifications: expressed or natural sequence
increase of suppression activity relative to Trpchr17.trna39 (NLuc-UGA PTC reporter): roughly 250%

B2: TS-10 52-62 G-C: t-stem mutant of Trpchr17.tRNA 39, FIG. 12B, SEQ ID NO: 589 (nucleic acid)
chain: GACCUCGUGGCGCAACGGUUAGCGCGUCUGACUUCAGAUCAGAAGGCUCCGGGUUCGAAUCCCGGCGGGGUCA
modifications: expressed or natural sequence
increase of suppression activity relative to Trpchr17.trna39 (NLuc-UGA PTC reporter): ~250%
